Laboratory results from US11884651B1, “7-(4-((4-benzylidene-5-oxo-2-phenyl-4,5-dihydro-1H-imidazol-1-yl)methyl)piperazin-1-yl)-1-cyclopropyl-6-fluoro-4-oxo-1,4-dihydroquinoline-3-carboxylic acid as an anti-inflammatory compound” (KING FAISAL UNIVERSITY, priority 2023, dated 2024).

Legend:
[1] = target: Bovine Serum Albumin (BSA) (Bos taurus, UniProt P02769); test: Bovine Serum Albumin Assay (BSA), inhibition of heat-induced protein denaturation (in vitro anti-inflammatory activity); type: biochemical
Method: Bovine Serum Albumin Assay (BSA) In vitro-inflammatory activities of the tested samples were determined using a modified method of the BSA assay reported by Williams et al. BSA solution (0.4%, w/v) was prepared in Tris Buffered Saline. The pH was adjusted to 6.4 with glacial acetic acid. Different dilutions of 20, 40, 60, 80, and 100 pg/mL of the stock solutions of 7-(4((4-benzylidene-5-oxo-2-phenyl-4,5-dihydro-1H-imidazol-1-yl)methyl)piperazin-1-yl)-1-cyclopropyl-6-fluoro-4-oxo-1,4-dihydroquinoline-3-carboxylic acid (4) were added to test tubes containing 1 mL of 0.4%, w/v BSA buffer solution. Both negative (solvent) and positive (aspirin) controls were assayed in a similar manner. The solutions were then heated in a water bath at 72° C. for 10 minutes and cooled for 20 minutes under laboratory conditions. The turbidity of the solutions (level of protein precipitation) was measured at 660 nm in Spectrophotometer (V-770 UV-Visible/NIR Spectrophotometer). The percentage inhibition of precipitation (protein denaturation) was determined relative to the negative control using the following equation: [formula] [formula]

Chain of Bovine Serum Albumin (BSA) (P02769 25-607): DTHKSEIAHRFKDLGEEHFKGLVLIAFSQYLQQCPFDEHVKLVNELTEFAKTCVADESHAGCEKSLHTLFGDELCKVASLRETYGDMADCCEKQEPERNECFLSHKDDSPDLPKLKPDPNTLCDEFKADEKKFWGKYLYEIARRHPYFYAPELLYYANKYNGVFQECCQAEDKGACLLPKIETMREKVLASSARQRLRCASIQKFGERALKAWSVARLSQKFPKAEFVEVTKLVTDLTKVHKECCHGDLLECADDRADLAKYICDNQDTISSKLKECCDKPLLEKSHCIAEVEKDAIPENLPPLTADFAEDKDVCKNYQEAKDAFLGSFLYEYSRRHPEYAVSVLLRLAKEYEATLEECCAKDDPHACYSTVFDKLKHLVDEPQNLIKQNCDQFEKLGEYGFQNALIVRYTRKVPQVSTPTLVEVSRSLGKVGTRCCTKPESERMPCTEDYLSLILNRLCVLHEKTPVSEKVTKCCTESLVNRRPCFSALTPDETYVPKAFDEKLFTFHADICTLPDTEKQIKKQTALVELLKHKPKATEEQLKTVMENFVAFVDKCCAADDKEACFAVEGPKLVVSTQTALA

melting point [°C] | in vitro anti-inflammatory activity (result in words) ([1]; BSA assay) | percentage inhibition of precipitation (protein denaturation) ([1]; bovine, 10 min, 100 pg/mL, pH 6.4) [%] | percentage inhibition of precipitation (protein denaturation) ([1]; 100 pg/ml (concentration printed for aspirin), 0.4% w/v BSA, pH 6.4, 72° C. for 10 minutes, turbidity at 660 nm, relative to negative control) [%] | SMILES
232 to 234 | considerable anti-inflammatory effect | 84.78 |  | O=C(O)c1cn(C2CC2)c2cc(N3CCN(CN4C(=O)/C(=C\c5ccccc5)N=C4c4ccccc4)CC3)c(F)cc2c1=O [Compound 4, 7-(4-((4-benzylidene-5-oxo-2-phenyl-4,5-dihydro-1H-imidazol-1-yl)methyl)piperazin-1-yl)-1-cyclopropyl-6-fluoro-4-oxo-1,4-dihydroquinoline-3-carboxylic acid]
 |  |  | 90.75 | CC(=O)Oc1ccccc1C(=O)O [aspirin, reference compound]
